# Measured values from patent US12052991B2, “Substituted pyridinyloxybenzenes and salts thereof and use thereof as herbicidal agents” (Bayer Aktiengesellschaft, priority 2018, dated 2024).
# Test system: Abutilon theophrasti (ABUTH)
# Assay: Herbicidal pre-emergence action, test C (Table C5)
# Type: in vivo
# Details: dosage 320 g/ha; visual scoring after about 3 weeks; 100% = plants have died, 0% = like control plants
# Summary of the method: (§1)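 In this test, soil-covered weed seeds in sandy loam received a surface application of compound at 1280 or 320 g/ha. Effects were rated visually as percentages compared with untreated controls roughly 3 weeks later.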
row,Structure (SMILES),Pre-emergence action against Abutilon theophrasti (ABUTH) [%]
1,Fc1cccc(Oc2ccc(Cl)cn2)c1-c1cc(C(F)F)no1 [Example 1-17],100

# Same assay, conditions: dosage 1280 g/ha; visual scoring after about 3 weeks; 100% = plants have died, 0% = like control plants
row,Structure (SMILES),Pre-emergence action against Abutilon theophrasti (ABUTH) [%]
1,Fc1cccc(Oc2ccc(Cl)cn2)c1-c1cc(C(F)F)no1 [Example 1-17],100

# Test system: Stellaria media (STEME)
# Assay: Herbicidal pre-emergence action, test C (Table C8)
# Type: in vivo
# Details: dosage 320 g/ha; visual scoring after about 3 weeks; 100% = plants have died, 0% = like control plants
# Summary of the method: as §1
row,Structure (SMILES),Pre-emergence action against Stellaria media (STEME) [%]
1,Fc1cccc(Oc2ccc(Cl)cn2)c1-c1cc(C(F)F)no1 [Example 1-17],100

# Same assay, conditions: dosage 1280 g/ha; visual scoring after about 3 weeks; 100% = plants have died, 0% = like control plants
row,Structure (SMILES),Pre-emergence action against Stellaria media (STEME) [%]
1,Fc1cccc(Oc2ccc(Cl)cn2)c1-c1cc(C(F)F)no1 [Example 1-17],100

# Test system: Amaranthus retroflexus (AMARE)
# Assay: Herbicidal post-emergence action (Table B6)
# Type: in vivo
# Details: dosage 320 g/ha; visual rating about 3 weeks after treatment; 100% = plants have died, 0% = like control plants
# Summary of the method: (§2)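 Visual percent activity relative to untreated controls (100% = plants dead, 0% = like controls) was scored about 3 weeks after treatment. Plants had been sprayed at the one-leaf stage with formulated compound at 1280 or 320 g/ha in 600 L/ha water containing 0.5% additive.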
row,Structure (SMILES),Post-emergence action against Amaranthus retroflexus (AMARE) [%]
1,Fc1cccc(Oc2ccc(Cl)cn2)c1-c1cc(C(F)F)no1 [Example 1-17],100

# Same assay, conditions: dosage 1280 g/ha; visual rating about 3 weeks after treatment; 100% = plants have died, 0% = like control plants
row,Structure (SMILES),Post-emergence action against Amaranthus retroflexus (AMARE) [%]
1,Fc1cccc(Oc2ccc(Cl)cn2)c1-c1cc(C(F)F)no1 [Example 1-17],100

# Test system: Echinochloa crus-galli (ECHCG)
# Assay: Herbicidal post-emergence action (Table B1)
# Type: in vivo
# Details: 320 g/ha; rated visually after about 3 weeks; 100% = plants have died, 0% = like control plants
# Summary of the method: as §2
row,Structure (SMILES),Post-emergence action against Echinochloa crus-galli (ECHCG) [%]
1,Fc1cccc(Oc2ccc(Cl)cn2)c1-c1cc(C(F)F)no1 [Example 1-17],100

# Same assay, conditions: 1280 g/ha; rated visually after about 3 weeks; 100% = plants have died, 0% = like control plants
row,Structure (SMILES),Post-emergence action against Echinochloa crus-galli (ECHCG) [%]
1,Fc1cccc(Oc2ccc(Cl)cn2)c1-c1cc(C(F)F)no1 [Example 1-17],100

# Test system: harmful plants ABUTH, AMARE, ECHCG, LOLRI, MATIN, POAAN, SETVI, STEME, ALOMY, DIGSA, KCHSC and VERPE
# Assay: Herbicidal post-emergence action, summary of Tables B1-B12
# Type: in vivo
# Details: application rate of 1280 or 320 g of active ingredient per hectare; summary in words
# Summary of the method: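 Greenhouse weeds in sandy loam treated post-emergence at the one-leaf stage, 2–3 weeks after sowing, with WP or EC formulations sprayed with 0.5% additive at 600 L/ha water, 1280 or 320 g/ha. Damage rated visually after about 3 weeks versus untreated controls (0% = like control, 100% = dead).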
row,Structure (SMILES),herbicidal activity against the harmful plants of Tables B1-B12 in post-emergence treatment
1,Fc1cccc(Oc2ccc(Cl)cn2)c1-c1cc(C(F)F)no1 [Example 1-17],very good herbicidal activity

# Test system: Abutilon theophrasti (ABUTH)
# Assay: Herbicidal post-emergence action (Table B5)
# Type: in vivo
# Details: 320 g/ha; rated visually after about 3 weeks; 100% = plants have died, 0% = like control plants
# Summary of the method: as §2
row,Structure (SMILES),Post-emergence action against Abutilon theophrasti (ABUTH) [%]
1,Fc1cccc(Oc2ccc(Cl)cn2)c1-c1cc(C(F)F)no1 [Example 1-17],100

# Same assay, conditions: 1280 g/ha; rated visually after about 3 weeks; 100% = plants have died, 0% = like control plants
row,Structure (SMILES),Post-emergence action against Abutilon theophrasti (ABUTH) [%]
1,Fc1cccc(Oc2ccc(Cl)cn2)c1-c1cc(C(F)F)no1 [Example 1-17],100

# Test system: Stellaria media (STEME)
# Assay: Herbicidal post-emergence action (Table B8)
# Type: in vivo
# Details: dosage 320 g/ha; visual rating about 3 weeks after treatment; 100% = plants have died, 0% = like control plants
# Summary of the method: as §2
row,Structure (SMILES),Post-emergence action against Stellaria media (STEME) [%]
1,Fc1cccc(Oc2ccc(Cl)cn2)c1-c1cc(C(F)F)no1 [Example 1-17],100

# Same assay, conditions: dosage 1280 g/ha; visual rating about 3 weeks after treatment; 100% = plants have died, 0% = like control plants
row,Structure (SMILES),Post-emergence action against Stellaria media (STEME) [%]
1,Fc1cccc(Oc2ccc(Cl)cn2)c1-c1cc(C(F)F)no1 [Example 1-17],100

# Test system: Poa annua (POAAN)
# Assay: Herbicidal pre-emergence action, test C (Table C3)
# Type: in vivo
# Details: dosage 320 g/ha; visual scoring after about 3 weeks; 100% = plants have died, 0% = like control plants
# Summary of the method: as §1
row,Structure (SMILES),Pre-emergence action against Poa annua (POAAN) [%]
1,Fc1cccc(Oc2ccc(Cl)cn2)c1-c1cc(C(F)F)no1 [Example 1-17],100

# Same assay, conditions: dosage 1280 g/ha; visual scoring after about 3 weeks; 100% = plants have died, 0% = like control plants
row,Structure (SMILES),Pre-emergence action against Poa annua (POAAN) [%]
1,Fc1cccc(Oc2ccc(Cl)cn2)c1-c1cc(C(F)F)no1 [Example 1-17],100

# Test system: Poa annua (POAAN)
# Assay: Herbicidal post-emergence action (Table B3)
# Type: in vivo
# Details: 320 g/ha; rated visually after about 3 weeks; 100% = plants have died, 0% = like control plants
# Summary of the method: as §2
row,Structure (SMILES),Post-emergence action against Poa annua (POAAN) [%]
1,Fc1cccc(Oc2ccc(Cl)cn2)c1-c1cc(C(F)F)no1 [Example 1-17],100

# Same assay, conditions: 1280 g/ha; rated visually after about 3 weeks; 100% = plants have died, 0% = like control plants
row,Structure (SMILES),Post-emergence action against Poa annua (POAAN) [%]
1,Fc1cccc(Oc2ccc(Cl)cn2)c1-c1cc(C(F)F)no1 [Example 1-17],100

# Test system: harmful plants ABUTH, AMARE, ECHCG, LOLRI, MATIN, POAAN, SETVI, STEME, ALOMY, DIGSA, KCHSC and VERPE
# Assay: Herbicidal pre-emergence action (test C), summary of Tables C1-C12
# Type: in vivo
# Details: application rate of 1280 or 320 g of active ingredient per hectare; summary in words
# Summary of the method: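 Pre-emergence pot test in sandy loam: WP or EC formulations were sprayed onto the covering soil with 0.5% additive at 600 L/ha water, at 1280 or 320 g/ha. Plants were kept in the greenhouse, and activity was rated visually about 3 weeks later as % versus untreated controls (100% = dead).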
row,Structure (SMILES),herbicidal activity against the harmful plants of Tables C1-C12 in pre-emergence treatment
1,Fc1cccc(Oc2ccc(Cl)cn2)c1-c1cc(C(F)F)no1 [Example 1-17],very good herbicidal activity

# Test system: Lolium rigidum (LOLRI)
# Assay: Herbicidal pre-emergence action, test C (Table C2)
# Type: in vivo
# Details: dosage 320 g/ha; visual scoring after about 3 weeks; 100% = plants have died, 0% = like control plants
# Summary of the method: as §1
row,Structure (SMILES),Pre-emergence action against Lolium rigidum (LOLRI) [%]
1,Fc1cccc(Oc2ccc(Cl)cn2)c1-c1cc(C(F)F)no1 [Example 1-17],100

# Same assay, conditions: dosage 1280 g/ha; visual scoring after about 3 weeks; 100% = plants have died, 0% = like control plants
row,Structure (SMILES),Pre-emergence action against Lolium rigidum (LOLRI) [%]
1,Fc1cccc(Oc2ccc(Cl)cn2)c1-c1cc(C(F)F)no1 [Example 1-17],100

# Test system: Amaranthus retroflexus (AMARE)
# Assay: Herbicidal pre-emergence action, test C (Table C6)
# Type: in vivo
# Details: dosage 320 g/ha; visual scoring after about 3 weeks; 100% = plants have died, 0% = like control plants
# Summary of the method: as §1
row,Structure (SMILES),Pre-emergence action against Amaranthus retroflexus (AMARE) [%]
1,Fc1cccc(Oc2ccc(Cl)cn2)c1-c1cc(C(F)F)no1 [Example 1-17],100

# Same assay, conditions: dosage 1280 g/ha; visual scoring after about 3 weeks; 100% = plants have died, 0% = like control plants
row,Structure (SMILES),Pre-emergence action against Amaranthus retroflexus (AMARE) [%]
1,Fc1cccc(Oc2ccc(Cl)cn2)c1-c1cc(C(F)F)no1 [Example 1-17],100

# Test system: Lolium rigidum (LOLRI)
# Assay: Herbicidal post-emergence action (Table B2)
# Type: in vivo
# Details: 320 g/ha; rated visually after about 3 weeks; 100% = plants have died, 0% = like control plants
# Summary of the method: as §2
row,Structure (SMILES),Post-emergence action against Lolium rigidum (LOLRI) [%]
1,Fc1cccc(Oc2ccc(Cl)cn2)c1-c1cc(C(F)F)no1 [Example 1-17],100

# Same assay, conditions: 1280 g/ha; rated visually after about 3 weeks; 100% = plants have died, 0% = like control plants
row,Structure (SMILES),Post-emergence action against Lolium rigidum (LOLRI) [%]
1,Fc1cccc(Oc2ccc(Cl)cn2)c1-c1cc(C(F)F)no1 [Example 1-17],100

# Test system: Echinochloa crus-galli (ECHCG)
# Assay: Herbicidal pre-emergence action, test C (Table C1)
# Type: in vivo
# Details: dosage 320 g/ha; visual scoring after about 3 weeks; 100% = plants have died, 0% = like control plants
# Summary of the method: as §1
row,Structure (SMILES),Pre-emergence action against Echinochloa crus-galli (ECHCG) [%]
1,Fc1cccc(Oc2ccc(Cl)cn2)c1-c1cc(C(F)F)no1 [Example 1-17],90

# Same assay, conditions: dosage 1280 g/ha; visual scoring after about 3 weeks; 100% = plants have died, 0% = like control plants
row,Structure (SMILES),Pre-emergence action against Echinochloa crus-galli (ECHCG) [%]
1,Fc1cccc(Oc2ccc(Cl)cn2)c1-c1cc(C(F)F)no1 [Example 1-17],100

# Test system: Setaria viridis (SETVI)
# Assay: Herbicidal pre-emergence action, test C (Table C4)
# Type: in vivo
# Details: dosage 320 g/ha; visual scoring after about 3 weeks; 100% = plants have died, 0% = like control plants
# Summary of the method: as §1
row,Structure (SMILES),Pre-emergence action against Setaria viridis (SETVI) [%]
1,Fc1cccc(Oc2ccc(Cl)cn2)c1-c1cc(C(F)F)no1 [Example 1-17],100

# Same assay, conditions: dosage 1280 g/ha; visual scoring after about 3 weeks; 100% = plants have died, 0% = like control plants
row,Structure (SMILES),Pre-emergence action against Setaria viridis (SETVI) [%]
1,Fc1cccc(Oc2ccc(Cl)cn2)c1-c1cc(C(F)F)no1 [Example 1-17],100

# Test system: Setaria viridis (SETVI)
# Assay: Herbicidal post-emergence action (Table B4)
# Type: in vivo
# Details: 320 g/ha; rated visually after about 3 weeks; 100% = plants have died, 0% = like control plants
# Summary of the method: as §2
row,Structure (SMILES),Post-emergence action against Setaria viridis (SETVI) [%]
1,Fc1cccc(Oc2ccc(Cl)cn2)c1-c1cc(C(F)F)no1 [Example 1-17],100

# Same assay, conditions: 1280 g/ha; rated visually after about 3 weeks; 100% = plants have died, 0% = like control plants
row,Structure (SMILES),Post-emergence action against Setaria viridis (SETVI) [%]
1,Fc1cccc(Oc2ccc(Cl)cn2)c1-c1cc(C(F)F)no1 [Example 1-17],100
